Patent US20080167188A1, “Herbicide Combinations Comprising Special Ketoenoles” (priority 2004, published 2008)

Legend:
Assay type in all cases: in vivo
PESGL = assay: field trial, herbicidal activity against PESGL; details: 2 to 3 repetitions, highest efficacy of three assessment days, g of a.i./ha: Ex. A.5 20, Glufosinate 400, combination 20 + 400
Experimental: (§1) The reported results originate from field trials carried out in 2 to 3 repetitions. The weed grasses or crops are sown. The activities are assessed on three days; what is reported are the highest efficacies.

TRZAS = assay: field trial, herbicidal activity against TRZAS; details: 2 to 3 repetitions, highest efficacy of three assessment days, g of a.i./ha: Ex. A.5 20, Glufosinate 400, combination 20 + 400
Experimental: as §1

BROSTE = assay: field trial, herbicidal activity against BROSTE; details: 2 to 3 repetitions, highest efficacy of three assessment days, g of a.i./ha: Ex. A.1 20, Metazachlor 1000, combination 20 + 1000
Experimental: as §1

AGGRE = assay: field trial, herbicidal activity against AGGRE; details: 2 to 3 repetitions, highest efficacy of three assessment days, g of a.i./ha: Ex. A.1 20, Metazachlor 1000, combination 20 + 1000
Experimental: as §1

ALOMY = assay: field trial, herbicidal activity against ALOMY; details: 2 to 3 repetitions, highest efficacy of three assessment days, g of a.i./ha: Ex. A.1 20, Metazachlor 1000, combination 20 + 1000
Experimental: as §1

| SMILES | % Activity PESGL (PESGL) | % Activity TRZAS (TRZAS) | % Activity BROSTE (BROSTE) | % Activity AGGRE (AGGRE) | % Activity ALOMY (ALOMY) |
| --- | --- | --- | --- | --- | --- |
| CP(=O)(O)CCC(N)C(=O)O (racemic) [Glufosinate (B4.2), 4-[hydroxy(methyl)phosphinoyl]-DL-homoalanine] | 20% | 20% | – | – | – |
| Cc1cccc(C)c1N(Cn1cccn1)C(=O)CCl [Metazachlor (B 3.20), 2-chloro-N-(2,6-dimethylphenyl)-N-(1H-pyrazol-1-ylmethyl)acetamide] | – | – | 45% | 10% | 28% |
| CCc1cc(Cl)cc(OC)c1C1=C(O)C2(CCC(OC)CC2)NC1=O (stereo not shown) [Ex. A.1] | – | – | 35% | 60% | 42% |
| CCOC(=O)OC1=C(c2c(CC)cc(Cl)cc2OC)C(=O)NC12CCC(OC)CC2 (stereo not shown) [Ex. A.5] | 70% | 69% | – | – | – |
